# Test results published in patent publication US5034528A, “Compositions for the control of hyperlipidemia” (North Carolina Central University, priority 1988, dated 1991).
# Like-named read-outs stand apart in the source and are kept apart here.
# Key:
# [1] = test system: serum cholesterol and serum triglyceride levels; assay: Testing of normal mice: serum cholesterol and serum triglyceride levels, compounds 20 mg/kg/d ip for 16 days; assay type: in vivo; conditions: CF1 male mice; for response vs control in vivo at 20 mg/kg/day: Mus musculus
# Experimental: The following compounds were tested for their hypolipidemic activity in CF1 mice.
# Compounds A-V as defined above, were suspended in an aqueous 1 percent carboxymethylcellulose (CMC) solution and homogenized. Each of the so prepared compounds were administered to a group of six CF1 male mice, each weighing approximately 25 grams, intra-peritioneally for 16 days. Each of these compounds were provided in a dosage of 20 mg/kg/d ip. On Days 9 and 16 blood was obtained by tail vein bleeding. The blood serum so obtained was separated by centrifugation for three minutes. Serum cholesterol levels were determined by a modification of the Liebermann-Burchard reaction (Ness, Clin. Chim. Acta., Vol. 10, 229 [1964]). Serum triglyceride levels were determined on Day 16 by use of the Fisher, Hycel Triglyceride Test Kit.
# In addition to the above-described treated mice, an untreated control group of six mice were similarly tested on Days 9 and 16 to determine their serum cholesterol and trigylceride blood levels. Based on the results obtained for the untreated control group, the percent control, based on serum cholesterol and serum triglyceride levels of the treated mice compared to the untreated mice, was obtained. Table 1 reports this percent control, including standard deviation, indicating the level of confidence of these numbers.
# [2] = test system: serum cholesterol and serum triglyceride levels; assay: Testing of hyperlipidemic mice: serum cholesterol and serum triglyceride levels on atherogenic diet; assay type: in vivo; conditions: hyperlipidemic CF1 male mice, 20 mg/kg/d ip, Day 12; diet-hyperlipidemic = 100
# Experimental: A group of six CF1 male mice (about 25 g) were placed on a commercial diet (U.S. Biochemical Corporation BAsal Atherogenic Test Diet) which produced a "hyperlipidemic" state. That is, the average serum cholesterol level in the group of treated mice was raised from 122 to 375 mg percent and triglyceride levels were raised from 137 to 367 mg/dL.
# [3] = test system: serum cholesterol and triglyceride levels; assay: Serum testing of normal rats: serum cholesterol and triglyceride levels, oral; assay type: in vivo; conditions: Sprague-Dawley male rats, 20 mg/kg/day orally
# Source text: Test solution of Compounds A, F, J, M, N and O were suspended in an aqueous solution of 1% CMC, homogenized and administered orally to six Sprague-Dawley male rats, which each weighted approximately 350 grams. Administration of the compounds was by an intubation needle. The rats were each fed with 20 milligrams of Compounds A, F, J, M, N and O per kilogram of body weight per day for 14 days. Similarly, six Sprague-Dawley male rats of approximately the same weight (that used for testing F weighed approximately 160 grams) were fed similar volumes of the same aqueous 1% CMC solution without the active agents, also orally, administered by intubation needle. In addition, as a control, a similar group of six male Sprague-Dawley rats were untreated.
# On Days 7 and 14, blood was obtained from each of the rats of the three groups by tail vein bleeding. The blood obtained was separated by centrifugation for three minutes. Serum cholesterol and triglyceride levels were determined in accordance with the procedure of Example 6.
# [4] = test system: cholesterol content of serum lipoprotein (VLDL, LDL, HDL); assay: Cholesterol content of serum lipoprotein of rats treated orally for 14 days; assay type: in vivo; conditions: Sprague-Dawley rats, orally 14 days, 20 mg/kg/day; control 1% CMC = 100
# Experimental: The cholesterol content of serum lipoprotein of
# Sprague-Dawley Rats treated orally for 14 days at 20 mg/kg/day
# mice = assay: LD50 in mice as single injection IP
# in vivo = conditions: mouse, ip
# [5] = 216 h, Day 9, ± standard deviation, read-out: Serum Cholesterol, Day 9 (percent control)
# [6] = 384 h, Day 16, ± standard deviation, read-out: Serum Cholesterol, Day 16 (percent control)
# [7] = 384 h, Day 16, ± standard deviation, read-out: Serum Triglyceride, Day 16 (percent control)
SMILES,"response vs control in vivo at 20 mg/kg/day [1, 5]","response vs control in vivo at 20 mg/kg/day [1, 6]","response vs control in vivo at 20 mg/kg/day [1, 7]","Serum Cholesterol, Day 9 (percent control) ([1]; Day 9, ± standard deviation)","Serum Cholesterol, Day 16 (percent control) ([1]; Day 16, ± standard deviation)","Serum Triglyceride, Day 16 (percent control) ([1]; Day 16, ± standard deviation)","Serum Cholesterol, Percent of Control, hyperlipidemic mice [2]","Serum Triglyceride, Percent of Control, hyperlipidemic mice [2]","Serum Cholesterol, Day 7, Percent of Control [3]","Serum Triglyceride, Day 7, Percent of Control [3]","Serum Cholesterol, Day 14, Percent of Control [3]","Serum Triglyceride, Day 14, Percent of Control [3]","HDL cholesterol, Percent of Control [4]","LDL cholesterol, Percent of Control [4]","VLDL cholesterol, Percent of Control [4]",LD50 value in mice as single injection IP (mice),LD50 (in vivo)
"CCCCCC(=O)n1c(=O)n(CCCC)c(=O)n1C(=O)CCCCC [T, 4-(4-n-butyl)-1,2 dipentylcarbonyl-1,2,4-triazolidine-3,5-dione]",69%,49%,53%,–,–,–,–,–,–,–,–,–,–,–,–,–,–
"O=C(Nc1ccccc1)n1[nH]c(=O)n(-c2ccccc2)c1=O [I, 4-phenyl-1-N-phenylcarbamoyl-1,2,4-triazolidine-3,5-dione]",79 ± 7%,74 ± 6%,68 ± 6%,–,–,–,–,–,–,–,–,–,–,–,–,–,–
"CCOC(=O)C1n2c(=O)n(-c3ccccc3)c(=O)n21 [M, 3-phenyl-6-ethoxycarbonyl-1,3,5-triazabicyclo[3.1.0]hexane-2,4-dione]",–,–,–,62 ± 6 percent control,57 ± 5 percent control,59 ± 6 percent control,46% of Control,54% of Control,70% of Control,36% of Control,36% of Control,54% of Control,340% of Control,67% of Control,71% of Control,> 500 mg/kg,–
"CCOC(=O)c1nc(=O)n(-c2ccc(Cl)cc2)c(=O)[nH]1 [O, 3-(4-chlorophenyl)-6-ethoxycarbonyl-1,3,5-triazine-2,4(1H,3 --H)-dione]",–,–,–,–,–,–,–,–,84% of Control,82% of Control,60% of Control,77% of Control,113% of Control,78% of Control,27% of Control,–,–
"COc1ccc(-n2c(=O)[nH][nH]c2=O)cc1 [F, 4-(4-methoxyphenyl)-1,2,4-triazolidine-3,5-dione]",–,–,–,–,–,–,–,–,77% of Control,87% of Control,66% of Control,81% of Control,141% of Control,78% of Control,59% of Control,–,–
"CC(=O)n1[nH]c(=O)n(-c2ccccc2)c1=O [A, 4-phenyl-1-methylcarbonyl-1,2,4-triazolidine-3,5-dione]",–,–,–,–,–,–,41% of Control,40% of Control,89% of Control,62% of Control,69% of Control,48% of Control,441% of Control,74% of Control,44% of Control,–,–
"CCOC(=O)c1nc(=O)n(-c2ccccc2)c(=O)[nH]1 [Compound N, 3-phenyl-6-ethoxycarbonyl-1,3,5-triazine-2,4(1 --H,3 --H)-dione]",–,–,–,–,–,–,50% of Control,46% of Control,71% of Control,61% of Control,67% of Control,53% of Control,409% of Control,87% of Control,–,–,> 500 mg/kg
"CCOC(=O)C1n2c(=O)n(-c3ccc(Cl)cc3)c(=O)n21 [L, 3-(4-chlorophenyl)-6-ethoxyacarbonyl-1,3,5-triazabicyclo[3.1.0]hexane-2,4-dione]",–,–,–,74 ± 3 percent control,56 ± 5 percent control,66 ± 7 percent control,–,–,–,–,–,–,–,–,–,–,–
"O=c1[nH][nH]c(=O)n1-c1ccc(Cl)cc1 [J, 4-(4-chlorophenyl)-1,2,4-triazolidine-3,5-dione]",–,–,–,–,–,–,46% of Control,49% of Control,59% of Control,61% of Control,60% of Control,52% of Control,194% of Control,43% of Control,98% of Control,–,–
